According to US20220162191A1, “SMALL MOLECULE MODULATORS OF IL-17” (LEO PHARMA A/S, priority 2019, published 2022):
pEC50: −log10 of the molar value.

Biological target: T1, human IL-17AA (Homo sapiens, UniProt Q16552)
T1 construct: host or cells: HEK (human embryonic kidney) cells
T1 sequence (Q16552 24-155) 1: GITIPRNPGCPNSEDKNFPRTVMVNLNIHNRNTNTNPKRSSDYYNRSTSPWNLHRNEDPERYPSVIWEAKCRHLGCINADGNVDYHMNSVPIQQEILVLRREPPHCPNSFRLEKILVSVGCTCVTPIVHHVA
T1 sequence (Q16552 24-155) 2: T1 sequence (Q16552 24-155) 1
Assay: IL-8 release assay in human epithelial keratinocytes adult (HEKa)
Assay type: cell-based
Conditions: 3 ng/ml human IL-17AA + 10 ng/ml human TNFalpha, 68-72 h, IL-8 by HTRF, read-out: Rel EC50 L-8 release assay
Outline: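 Adult human keratinocytes in Epilife with HKGS minus hydrocortisone, treated with compound then stimulated with final 3 ng/ml HEK-derived human IL-17AA plus 10 ng/ml TNF-alpha for 68–72 h at 37 °C; TNF-alpha alone defines 100% inhibition. Secreted IL-8 by HTRF; relative IC50 and Emax from four-parameter fits.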

Substance “N-[(1S)-2-[6-chloro-3-(1-isopropyl- 6-oxo-3-pyridyl)cyclohexa-2,4-dien- 1-yl]-1-[[4-(3-methylimidazol-4- yl)phenyl]carbamoyl]propyl]-2- methyl-pyrazole-3-carboxamide [Example 54]” has a pEC50 of 6.00 to 7.00.
